Data: ChEMBL document CHEMBL5257084, “Novel inhibitors of Rickettsia prowazekii methionine aminopeptidase from the Malaria Box” (Bioorg Med Chem Lett, 2023)
pIC50: −log10 of the molar value.

What was measured:
[1] = Inhibition of Rickettsia prowazekii Methionine aminopeptidase 1; assay type: single protein
Rickettsia prowazekii = experiment: Inhibition of Rickettsia prowazekii Methionine aminopeptidase 1 at 10 uM relative to control

O=C(NCC(c1ccsc1)N1CCCCCC1)c1ccc(C(F)(F)F)cc1 (stereo not given)
pIC50 [1]: 4.82 | inhibition (Rickettsia prowazekii): > 50%

O=C(O)c1ccc(-c2ccccc2Cl)o1
pIC50 [1]: 5.62

O=C(NC(c1ccccc1)c1ccc2cccnc2c1O)c1ccccc1 (stereo not given)
pIC50 [1]: 4.92 | inhibition (Rickettsia prowazekii): > 50%

CCCc1c(CC)c(=N)c2ccccc2n1C
pIC50 [1]: 5.80 | inhibition (Rickettsia prowazekii): > 50%

COc1ccc(C2=C(c3ccc(OC)cc3)C3(c4ccccc4)C(=O)C2(c2ccccc2)C2C(=O)N(c4ccc(C)cc4)C(=O)C23)cc1 (stereo not given)
pIC50 [1]: 5.40 | inhibition (Rickettsia prowazekii): > 50%

c1ccc(Cn2c(/N=N/c3c(Nc4ccccc4)ccc4ccccc34)nc3ccccc32)cc1
pIC50 [1]: 5.72 | inhibition (Rickettsia prowazekii): > 50%

CC(C)OCc1cc(CN2CCN(c3cccc(Cl)c3)CC2)c(O)c2ncccc12
pIC50 [1]: 5.42 | inhibition (Rickettsia prowazekii): > 50%

CSC1=N/C(=N\c2c(C)cccc2C)C2(CCC(C(C)(C)C)CC2)N1c1ccc(Cl)cc1 (stereo not given)
pIC50 [1]: 5.05 | inhibition (Rickettsia prowazekii): > 50%

Cc1ccc(N2C3c4ccccc4N(S(=O)(=O)c4ccc(C)cc4)C2c2ccccc2N3S(=O)(=O)c2ccc(C)cc2)cc1
pIC50 [1]: 6.10 | inhibition (Rickettsia prowazekii): > 50%

COc1ccc(/C=C2\SC(=N)N(c3ccccc3OC)C2=O)cc1
pIC50 [1]: 5.36 | inhibition (Rickettsia prowazekii): > 50%

COc1ccc(-c2c(C)nn3c(N)c(C#N)cnc23)cc1OC
pIC50 [1]: 5.05 | inhibition (Rickettsia prowazekii): > 50%

COc1cccc(NC(=O)[C@H](C(C)C)n2c(=O)[nH]c3ccccc3c2=O)c1
pIC50 [1]: 4.66 | inhibition (Rickettsia prowazekii): > 50%

CCn1c(CN2CCN(Cc3ccccc3)CC2)nc2cc(NC(=O)c3cccs3)ccc21
pIC50 [1]: 5.05 | inhibition (Rickettsia prowazekii): > 50%
